According to PubChem BioAssay AID435027 (Sanford-Burnham Center for Chemical Genomics, 2010):

Target: Tyrosine-protein phosphatase non-receptor type 22 (Homo sapiens) (UniProt Q9Y2R2)
Assay: LYP phosphatase inhibitor potency, dose response, biochemical, pCAP substrate, fluorescence intensity (AID 435027)
Details: recombinant LYP

Sequence of Tyrosine-protein phosphatase non-receptor type 22 (Homo sapiens) (Q9Y2R2 whole entry, looked up): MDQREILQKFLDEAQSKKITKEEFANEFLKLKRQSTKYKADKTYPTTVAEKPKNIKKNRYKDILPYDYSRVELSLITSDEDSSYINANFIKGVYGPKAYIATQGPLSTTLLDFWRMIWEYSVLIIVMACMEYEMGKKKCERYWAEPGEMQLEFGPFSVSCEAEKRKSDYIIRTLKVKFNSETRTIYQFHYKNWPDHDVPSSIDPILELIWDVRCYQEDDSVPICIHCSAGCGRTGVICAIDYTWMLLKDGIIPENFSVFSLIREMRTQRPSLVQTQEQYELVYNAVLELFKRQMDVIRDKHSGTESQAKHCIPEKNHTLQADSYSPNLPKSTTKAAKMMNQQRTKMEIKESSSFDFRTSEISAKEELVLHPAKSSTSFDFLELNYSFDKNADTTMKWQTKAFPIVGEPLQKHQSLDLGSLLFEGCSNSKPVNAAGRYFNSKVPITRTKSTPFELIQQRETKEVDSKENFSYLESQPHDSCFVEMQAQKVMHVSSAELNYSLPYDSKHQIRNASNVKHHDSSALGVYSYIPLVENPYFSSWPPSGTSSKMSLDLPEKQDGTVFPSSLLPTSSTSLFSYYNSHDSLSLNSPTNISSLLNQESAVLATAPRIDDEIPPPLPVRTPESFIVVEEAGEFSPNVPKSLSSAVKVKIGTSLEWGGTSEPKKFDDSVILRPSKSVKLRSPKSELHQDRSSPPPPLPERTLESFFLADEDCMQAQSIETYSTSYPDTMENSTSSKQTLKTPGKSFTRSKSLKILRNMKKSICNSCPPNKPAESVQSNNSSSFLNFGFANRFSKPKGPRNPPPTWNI

| SMILES | IC50 [µM] |
| --- | --- |
| O=C(O)CCCN1C(=O)/C(=C/c2ccc(-c3nc4ccccc4s3)o2)SC1=S | 4.76 |
| Cc1ccc(/C=C/c2nc3sc(C(=O)O)c(C)c3c(=O)[nH]2)cc1[N+](=O)[O-] | 4.58 |
